# Test results: patent publication US7932262B2 (Novartis AG, priority 2006, dated 2011)
# Experiments:
# PDK1 kinase = biological target: T1, PDK1 kinase (Homo sapiens, UniProt O15530); experiment: PDK1 Kinase Alpha Screen Assay; format: biochemical; settings: PDK1 Kinase Alpha Screen Assay; read-out: PDK1 IC50
# T1 sequence (O15530 1-556): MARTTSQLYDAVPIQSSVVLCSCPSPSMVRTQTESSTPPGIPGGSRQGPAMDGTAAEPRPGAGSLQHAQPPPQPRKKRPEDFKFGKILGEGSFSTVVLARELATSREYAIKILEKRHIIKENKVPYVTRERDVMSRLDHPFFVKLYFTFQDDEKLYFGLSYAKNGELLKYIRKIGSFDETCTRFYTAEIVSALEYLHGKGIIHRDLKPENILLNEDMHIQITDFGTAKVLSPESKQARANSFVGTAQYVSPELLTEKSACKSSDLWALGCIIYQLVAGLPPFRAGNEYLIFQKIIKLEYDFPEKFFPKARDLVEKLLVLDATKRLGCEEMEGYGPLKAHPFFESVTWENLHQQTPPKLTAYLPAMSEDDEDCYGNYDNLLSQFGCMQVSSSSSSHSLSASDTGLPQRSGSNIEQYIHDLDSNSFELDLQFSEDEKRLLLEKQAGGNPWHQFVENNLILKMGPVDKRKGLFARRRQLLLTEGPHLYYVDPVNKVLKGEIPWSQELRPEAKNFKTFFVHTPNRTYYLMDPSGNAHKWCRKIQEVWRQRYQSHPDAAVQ
# In short: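 AlphaScreen readout: phospho-peptide captured by phospho-(Ser/Thr) PKA substrate antibody (0.3 mg/ml) on protein A acceptor beads, biotin peptide on streptavidin donor beads (25 μg/ml each), overnight at room temperature. Kinase step used 50 nM PDK1-4 peptide, 10 uM ATP, 3-18 hours.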
# PC-3 cells = experiment: Cell Proliferation Assay (Cell Titer Glo), PC-3 cell line; format: cell-based; settings: Homo sapiens, PC-3, Cell Proliferation Assay, PC3; read-out: CPEC50 PC3
# In short: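 Cell Titer Glo luminescence, read after fresh medium replaced the dosing medium, gave viability of PC-3 cells plated at 1000 cells/well. Compounds, 1:3 serially diluted in DMSO at 500× and then in medium, were added after 3-5 h adhesion and incubated 3 days at 37° C.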
Compound,IC50 (PDK1 kinase) [µM],EC50 (PC-3 cells) [µM]
"C#Cc1cc(-c2ccc(NCCN3CCCC3)nc2)c2nc(Nc3ccc(S(N)(=O)=O)cc3)ncc2c1 [Compound 634, 4-(6-ethynyl-8-(6-(2-(pyrrolidin-1-yl)ethylamino)pyridin-3-yl)quinazolin-2-ylamino)benzenesulfonamide]",< 5,< 5
"C#Cc1cc(OC2CN3CCC2CC3)c2nc(Nc3ccc(S(N)(=O)=O)cc3)ncc2c1 (stereo not drawn) [Compound 635, 4-(6-ethynyl-8-(quinuclidin-3-yloxy)quinazolin-2-ylamino)benzenesulfonamide]",< 5,< 5
CC(C)NC(=O)c1ccc(Nc2ncc3cc(C#N)c(OC4CCN(C(C)C)CC4)cc3n2)cc1 [Compound 639],< 5,< 5
"N#Cc1cc2cnc(Nc3ccc(C(=O)N4CCOCC4)cc3)nc2cc1OC1CCNCC1 [Compound 640, 2-(4-(morpholine-4-carbonyl)phenylamino)-7-(piperidin-4-yloxy)quinazoline-6-carbonitrile]",< 5,< 5
C#Cc1cc2cnc(Nc3ccc(C(=O)N4CCOCC4)cc3)nc2cc1OC1CCNCC1 [Compound 641],< 5,< 5
"O=C(c1ccc(Nc2ncc3cc(C4CC4)c(OC4CCNCC4)cc3n2)cc1)N1CCOCC1 [Compound 642, (4-(6-cyclopropyl-7-(piperidin-4-yloxy)quinazolin-2-ylamino)phenyl)(morpholino)methanone]",< 5,< 5
COc1ccc(Cl)c2cnc(Nc3cc(CN(C)C)cc(NC(C)=O)c3)nc12 [Compound 691],< 5,5 to 10
"O=C(c1ccc(Nc2ncc3c(Cl)ccc(OC4CCNCC4)c3n2)cc1Cl)N1CCOCC1 [Compound 692, (2-chloro-4-(5-chloro-8-(piperidin-4-yloxy)quinazolin-2-ylamino)phenyl) (morpholino)methanone]",< 5,< 5
"O=C(c1ccc(Nc2ncc3c(Cl)ccc(NC4CCNCC4)c3n2)cc1)N1CCOCC1 [Compound 693, (4-(5-chloro-8-(piperidin-4-ylamino)quinazolin-2-ylamino)phenyl)(morpholino)methanone]",< 5,< 5
"NC1CCN(c2ccc(Cl)c3cnc(Nc4ccc(C(=O)N5CCOCC5)cc4)nc23)CC1 [Compound 694, (4-(8-(4-aminopiperidin-1-yl)-5-chloroquinazolin-2-ylamino)phenyl)(morpholino)methanone]",< 5,< 5
"CC(C)N1CCC(Nc2ccc(Cl)c3cnc(Nc4ccc(C(=O)N5CCOCC5)cc4)nc23)CC1 [Compound 695, (4-(5-chloro-8-(1-isopropylpiperidin-4-ylamino)quinazolin-2-ylamino)phenyl)(morpholino)methanone]",< 5,5 to 10
"C#Cc1cc(OC2CCNCC2)c2nc(Nc3ccc(C(=O)N4CCOCC4)cc3)ncc2c1 [Compound 705, (4-(6-ethynyl-8-(piperidin-4-yloxy)quinazolin-2-ylamino)phenyl)(morpholino)methanone]",< 5,< 5

# Other lines, results leading:
IC50 (PDK1 kinase) [µM],EC50 (PC-3 cells) [µM],Compound
< 5,< 5,"CC(C)N1CCC(Oc2cc3nc(Nc4ccc(N5CCOCC5)cc4)ncc3cc2-c2cn[nH]c2)CC1 [Compound 621, 7-(1-isopropylpiperidin-4-yloxy)-N-(4-morpholinophenyl)-6-(1H-pyrazol-4-yl)quinazolin-2-amine]"
< 5,< 5,"C#Cc1cc2cnc(Nc3ccc(C(=O)NC(C)C)cc3)nc2cc1OC1CCN(C(C)C)CC1 [Compound 636, 4-(6-ethynyl-7-(1-isopropylpiperidin-4-yloxy)quinazolin-2-ylamino)-N-isopropylbenzamide]"
< 5,< 5,"CC(C)NC(=O)c1ccc(Nc2ncc3cc(C4CC4)c(OC4CCN(C(C)C)CC4)cc3n2)cc1 [Compound 637, 4-(6-cyclopropyl-7-(1-isoproylpiperidin-4-yloxy)quinazolin-2-ylamino)-N-isopropylbenzamide]"
< 5,< 5,"CC(C)NC(=O)c1ccc(Nc2ncc3cc(-c4nccs4)c(OC4CCN(C(C)C)CC4)cc3n2)cc1 [Compound 638, N-isopropyl-4-(7-(1-isoproylpiperidin-4-yloxy)-6-(thiazol-2-yl)quinazolin-2-ylamino)benzamide]"
< 5,< 5,"c1cc(N2CCOCC2)ccc1Nc1ncc2cc(C3CC3)c(OC3CCNCC3)cc2n1 [Compound 643, 6-cyclopropyl-N-(4-morpholinophenyl)-7-(piperidin-4-yloxy)quinazolin-2-amine]"
< 5,< 5,"N#Cc1cc2cnc(Nc3ccc(N4CCOCC4)cc3)nc2cc1OC1CCNCC1 [Compound 644, 2-(4-morpholinophenylamino)-7-(piperidin-4-yloxy)quinazoline-6-carbonitrile]"
< 5,< 5,"Brc1cc2cnc(Nc3ccc(N4CCOCC4)cc3)nc2cc1OC1CCNCC1 [Compound 650, 6-bromo-N-(4-morpholinophenyl)-7-(piperidin-4-yloxy)quinazolin-2-amine]"
< 5,< 5,"C#Cc1cc(OC2CCN(C(C)C)CC2)c2nc(Nc3cccc(N4CCOCC4)c3)ncc2c1 [Compound 697, 6-ethynyl-8-(1-isopropylpiperidin-4-yloxy)-N-(3-morpholinophenyl)quinazolin-2-amine]"
< 5,< 5,"C#Cc1cc(OC2CCN(C(C)C)CC2)c2nc(Nc3ccc(N4CCOCC4)cc3)ncc2c1 [Compound 698, 6-ethynyl-8-(1-isopropylpiperidin-4-yloxy)-N-(4-morpholinophenyl)quinazolin-2-amine]"
< 5,< 5,"CC(C)N1CCC(Oc2cc(C#N)cc3cnc(Nc4ccc(N5CCOCC5)cc4)nc23)CC1 [Compound 699, 8-(1-isopropylpiperidin-4-yloxy)-2-(4-morpholinophenylamino)quinazoline-6-carbonitrile]"
< 5,< 5,"C#Cc1cc(OC2CCNCC2)c2nc(Nc3ccc(N4CCOCC4)cc3)ncc2c1 [Compound 700, 6-ethynyl-N-(4-morpholinophenyl)-8-(piperidin-4-yloxy)quinazolin-2-amine]"
< 5,< 5,"N#Cc1cc(OC2CCNCC2)c2nc(Nc3ccc(N4CCOCC4)cc3)ncc2c1 [Compound 701, 2-(4-morpholinophenylamino)-8-(piperidin-4-yloxy)quinazoline-6-carbonitrile]"
< 5,< 5,"c1csc(-c2cc(OC3CCNCC3)c3nc(Nc4ccc(N5CCOCC5)cc4)ncc3c2)n1 [Compound 702, N-(4-morpholinophenyl)-8-(piperidin-4-yloxy)-6-(thiazol-2-yl)quinazolin-2-amine]"
< 5,< 5,"c1cc(N2CCOCC2)ccc1Nc1ncc2cc(C3CC3)cc(OC3CCNCC3)c2n1 [Compound 703, 6-cyclopropyl-N-(4-mropholinophenyl)-8-(piperidin-4-yloxy)quinazolin-2-amine]"
< 5,< 5,"CC(C)N1CCC(Oc2cc(C3CC3)cc3cnc(Nc4ccc(N5CCOCC5)cc4)nc23)CC1 [Compound 704, 6-cyclopropyl-8-(1-isopropylpiperidin-4-yloxy)-N-(4-morpholinophenyl)quinazolin-2-amine]"
